Where a name gives a salt, the structure may show the parent alone.
Biological target: T1, EGFR (L858R & T790M) (Homo sapiens, UniProt P00533, L858R/T790M)
T1 construct: GST; purchased Proqinase
Assay: EGFR (L858R & T790M) inhibition assay, HTRF method
Settings: biochemical HTRF; EGFR (T790M/L858R) 2.5 nM, ATP 5 μM, 60 min room temperature
Outline: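 GST-EGFR T790M/L858R (2.5 nM) phosphorylating biotinylated gastrin precursor peptide (0.5 μM) with 5 μM ATP in HEPES pH 7.4/Mg/Mn buffer, 60 min room temperature; compounds from 10 μM top. HTRF read-out (Eu anti-pTyr, SA-APC), 665/620 nm; IC50 from % inhibition.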

T1 sequence (P00533 25-1210 T790M/L858R): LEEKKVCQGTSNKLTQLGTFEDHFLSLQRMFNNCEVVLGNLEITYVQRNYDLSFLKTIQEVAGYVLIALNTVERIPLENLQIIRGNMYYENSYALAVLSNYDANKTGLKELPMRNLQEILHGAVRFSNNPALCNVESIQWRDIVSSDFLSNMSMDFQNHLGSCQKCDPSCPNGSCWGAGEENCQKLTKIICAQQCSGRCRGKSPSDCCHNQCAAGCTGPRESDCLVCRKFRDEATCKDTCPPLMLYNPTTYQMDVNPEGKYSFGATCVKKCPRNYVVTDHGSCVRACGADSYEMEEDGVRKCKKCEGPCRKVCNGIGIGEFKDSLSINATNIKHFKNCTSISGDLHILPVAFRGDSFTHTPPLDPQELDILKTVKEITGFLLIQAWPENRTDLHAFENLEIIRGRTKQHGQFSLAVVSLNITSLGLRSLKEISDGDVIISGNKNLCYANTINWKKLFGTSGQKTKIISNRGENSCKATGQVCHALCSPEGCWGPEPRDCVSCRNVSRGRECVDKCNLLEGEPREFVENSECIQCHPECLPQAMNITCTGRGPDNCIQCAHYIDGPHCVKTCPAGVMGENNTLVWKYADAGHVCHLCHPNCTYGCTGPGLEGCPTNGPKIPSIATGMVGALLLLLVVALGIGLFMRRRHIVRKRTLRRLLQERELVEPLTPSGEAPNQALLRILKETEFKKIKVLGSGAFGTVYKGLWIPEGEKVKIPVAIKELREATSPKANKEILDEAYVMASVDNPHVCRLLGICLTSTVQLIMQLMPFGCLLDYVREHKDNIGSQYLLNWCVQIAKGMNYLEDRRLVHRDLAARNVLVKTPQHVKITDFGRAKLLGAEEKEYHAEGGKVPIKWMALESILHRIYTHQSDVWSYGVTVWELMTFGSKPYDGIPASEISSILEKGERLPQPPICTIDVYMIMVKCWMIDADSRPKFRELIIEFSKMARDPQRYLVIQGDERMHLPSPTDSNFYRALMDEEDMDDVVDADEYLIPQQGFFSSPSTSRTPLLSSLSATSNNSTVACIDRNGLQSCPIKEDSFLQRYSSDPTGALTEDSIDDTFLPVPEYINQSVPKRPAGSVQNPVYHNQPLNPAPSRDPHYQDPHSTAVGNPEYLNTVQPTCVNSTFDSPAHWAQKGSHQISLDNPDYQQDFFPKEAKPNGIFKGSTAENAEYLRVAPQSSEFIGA

SMILES | IC50 [nM]
CC(Nc1nc(Nc2cnn(C)c2)ncc1Cl)c1cccc(NC(=O)/C=C/CN(C)C)c1 (centres unmarked) [Compound I-57, (E)-N-(3-(1-((5-chloro-2-((1-methyl-1H-pyrazol-4-yl)amino)pyrimidin-4-yl)amino)ethyl)phenyl)-4-(dimethylamino)but-2-enamide] | > 100
C=CC(=O)Nc1ccc(F)c(Nc2nc(Nc3cn(C)nc3Cl)ncc2Cl)c1 [Compound I-58, N-(3-((5-chloro-2-((3-chloro-1-methyl-1H-pyrazol-4-yl)amino)pyrimidin-4-yl)amino)-4-fluorophenyl)acrylamide] | < 10
C=CC(=O)Nc1cccc(Nc2nc(Nc3cnn(C)c3)nc(C)c2Cl)c1 [Compound I-59, N-(3-((5-chloro-6-methyl-2-((1-methyl-1H-pyrazol-4-yl)amino)pyrimidin-4-yl)amino)phenyl)acrylamide] | > 100
C=CC(=O)Nc1cccc(Nc2nc(Nc3cn(C)cn3)ncc2Cl)c1 [Compound I-60, N-(3-((5-chloro-2-((1-methyl-1H-imidazol-4-yl)amino)pyrimidin-4-yl)amino)phenyl)acrylamide] | 10 to 100
C=CC(=O)Nc1cccc(Nc2nc(Nc3cnn(C4CCNCC4)c3)ncc2Cl)c1 [Compound I-62, N-(3-((5-chloro-2-((1-(piperidin-4-yl)-1H-pyrazol-4-yl)amino)pyrimidin-4-yl)amino)phenyl)acrylamide trifluoroacetate] | < 10
Cn1cc(Nc2ncc(Cl)c(Nc3cccc(N4C(=O)C=CC4=O)c3)n2)cn1 [Compound I-63, 1-(3-((5-chloro-2-((1-methyl-1H-pyrazol-4-yl)amino)pyrimidin-4-yl)amino)phenyl)-1H-pyrrole-2,5-dione] | > 100
C=CS(=O)(=O)Nc1cc(Nc2nc(Nc3cnn(C4CCN(C)CC4)c3)ncc2Cl)ccc1F [Compound I-64, N-(5-((5-chloro-2-((1-(1-methylpiperidin-4-yl)-1H-pyrazol-4-yl)amino)pyrimidin-4-yl)amino)-2-fluorophenyl)ethenesulfonamide] | 10 to 100
C=CS(=O)(=O)Nc1cccc(Nc2nc(Nc3cnn(C)c3)ncc2Cl)c1 [Compound I-65, N-(3-((5-chloro-2-((1-methyl-1H-pyrazol-4-yl)amino)pyrimidin-4-yl)amino)phenyl)ethenesulfonamide] | 10 to 100
C=CC(=O)Nc1cc(Nc2nc(Nc3cnn(C)c3)ncc2Cl)ccc1F [Compound I-66, N-(5-((5-chloro-2-((1-methyl-1H-pyrazol-4-yl)amino)pyrimidin-4-yl)amino)-2-fluorophenyl)acrylamide] | 10 to 100
C=CC(=O)Nc1cc(Nc2nc(Nc3cnn(C4CCN(C)CC4)c3)ncc2Cl)ccc1F [Compound I-67, N-(5-((5-chloro-2-((1-(1-methylpiperidin-4-yl)-1H-pyrazol-4-yl)amino)pyrimidin-4-yl)amino)-2-fluorophenyl)acrylamide] | 10 to 100
C=CC(=O)Nc1cc(Nc2nc(Nc3cnn(C)c3)ncc2Cl)c(F)cc1F [Compound I-68, N-(5-((5-chloro-2-((1-methyl-1H-pyrazol-4-yl)amino)pyrimidin-4-yl)amino)-2,4-difluorophenyl)acrylamide] | 10 to 100
C=CC(=O)Nc1cc(Nc2nc(Nc3cnn(C4CCN(C)CC4)c3)ncc2Cl)c(F)cc1F [Compound I-69, N-(5-((5-chloro-2-((1-(1-methylpiperidin-4-yl)-1H-pyrazol-4-yl)amino)pyrimidin-4-yl)amino)-2,4-difluorophenyl)acrylamide] | < 10
C=CC(=O)Nc1ccc(F)c(Nc2nc(Nc3cnn(C)c3C)ncc2Cl)c1 [Compound I-71, N-(3-((5-chloro-2-((1,5-dimethyl-1H-pyrazol-4-yl)amino)pyrimidin-4-yl)amino)-4-fluorophenyl)acrylamide] | 10 to 100
C=CC(=O)Nc1cccc(N(C)c2nc(Nc3cnn(C4CCN(C)CC4)c3)ncc2Cl)c1 [Compound I-72, N-(3-((5-chloro-2-((1-(1-methylpiperidin-4-yl)-1H-pyrazol-4-yl)amino)pyrimidin-4-yl)(methyl)amino)phenyl)acrylamide] | 10 to 100
C=CC(=O)Nc1cccc(Nc2nc(Nc3cnn(C)c3)ncc2Cl)n1 [Compound I-75, N-(6-((5-chloro-2-((1-methyl-1H-pyrazol-4-yl)amino)pyrimidin-4-yl)amino)pyridin-2-yl)acrylamide] | 10 to 100
C=CC(=O)Nc1cccc(Nc2nc(Nc3cnn(C)c3)ncc2C2CC2)c1 [Compound I-76, N-(3-((5-cyclopropyl-2-((1-methyl-1H-pyrazol-4-yl)amino)pyrimidin-4-yl)amino)phenyl)acrylamide] | 10 to 100
C=CC(=O)Nc1cccc(Oc2nc(Nc3cnn(C4CCN(C)CC4)c3)ncc2Cl)c1 [Compound I-77, N-(3-((5-chloro-2-((1-(1-methylpiperidin-4-yl)-1H-pyrazol-4-yl)amino)pyrimidin-4-yl)oxy)phenyl)acrylamide] | 10 to 100
C=CC(=O)Nc1cccc(Oc2nc(Nc3cc4n(n3)CCN(C)C4)ncc2Cl)c1 [Compound I-78, N-(3-((5-chloro-2-((5-methyl-4,5,6,7-tetrahydropyrazolo[1,5-a]pyrazin-2-yl)amino)pyrimidin-4-yl)oxy)phenyl)acrylamide] | 10 to 100

SMILES | IC50 [nM]
C=CC(=O)Nc1cccc(Oc2nc(Nc3cnn(C(C)C)c3)ncc2Cl)c1 [Compound I-79, N-(3-((5-chloro-2-((1-isopropyl-1H-pyrazol-4-yl)amino)pyrimidin-4-yl)oxy)phenyl)acrylamide] | 10 to 100
C=CC(=O)Nc1cccc(Oc2nc(Nc3cnn(CCN(C)C)c3)ncc2Cl)c1 [Compound I-80, N-(3-((5-chloro-2-((1-(2-(dimethylamino)ethyl)-1H-pyrazol-4-yl)amino)pyrimidin-4-yl)oxy)phenyl)acrylamide] | 10 to 100
C=CC(=O)Nc1cccc(Oc2nc(Nc3cnn(CC(C)(C)O)c3)ncc2Cl)c1 [Compound I-81, N-(3-((5-chloro-2-((1-(2-hydroxy-2-methylpropyl)-1H-pyrazol-4-yl)amino)pyrimidin-4-yl)oxy)phenyl)acrylamide] | > 100
C=CC(=O)Nc1cccc(Oc2nc(Nc3cnn(CC4CC4)c3)ncc2Cl)c1 [Compound I-82, N-(3-((5-chloro-2-((1-(cyclopropylmethyl)-1H-pyrazol-4-yl)amino)pyrimidin-4-yl)oxy)phenyl)acrylamide] | 10 to 100
C=CC(=O)Nc1cccc(Oc2nc(Nc3c(C)nn(C4CCN(C)CC4)c3C)ncc2Cl)c1 [Compound I-83, N-(3-((5-chloro-2-((3,5-dimethyl-1-(1-methylpiperidin-4-yl)-1H-pyrazol-4-yl)amino)pyrimidin-4-yl)oxy)phenyl)acrylamide] | > 100
C=CC(=O)Nc1cccc(Oc2nc(Nc3c(C)nn(C)c3C)ncc2Cl)c1 [Compound I-84, N-(3-((5-chloro-2-((1,3,5-trimethyl-1H-pyrazol-4-yl)amino)pyrimidin-4-yl)oxy)phenyl)acrylamide] | > 100
C=CC(=O)Nc1cccc(Oc2nc(Nc3cnn(C)c3)ncc2Cl)c1 [Compound I-85, N-(3-((5-chloro-2-((1-methyl-1H-pyrazol-4-yl)amino)pyrimidin-4-yl)oxy)phenyl)acrylamide] | < 10
C=CC(=O)Nc1cccc(Oc2nc(Nc3cnn(CCOC)c3)ncc2Cl)c1 [Compound I-87, N-(3-((5-chloro-2-((1-(2-methoxyethyl)-1H-pyrazol-4-yl)amino)pyrimidin-4-yl)oxy)phenyl)acrylamide] | 10 to 100
C=CC(=O)NC1CCCC(Nc2nc(Nc3cnn(C)c3)ncc2Cl)C1 (centres unmarked) [Compound I-92, N-(3-((5-chloro-2-((1-methyl-1H-pyrazol-4-yl)amino)pyrimidin-4-yl)amino)cyclohexyl)acrylamide] | 10 to 100
C=CC(=O)NC1CCC(Nc2nc(Nc3cnn(C)c3)ncc2Cl)C1 (centres unmarked) [Compound I-93, N-(3-((5-chloro-2-((1-methyl-1H-pyrazol-4-yl)amino)pyrimidin-4-yl)amino)cyclopentyl)acrylamide] | > 100
C=CC(=O)NC1CCC(Nc2nc(Nc3cnn(C)c3)ncc2Cl)CC1 (centres unmarked) [Compound I-94, N-(4-((5-chloro-2-((1-methyl-1H-pyrazol-4-yl)amino)pyrimidin-4-yl)amino)cyclohexyl)acrylamide] | > 100
C=CC(=O)NC1CCCC(Nc2nc(Nc3cn(C)nc3Cl)ncc2Cl)C1 (centres unmarked) [Compound I-95, N-(3-((5-chloro-2-((3-chloro-1-methyl-1H-pyrazol-4-yl)amino)pyrimidin-4-yl)amino)cyclohexyl)acrylamide] | 10 to 100
C=CC(=O)NC1CCCC(Nc2nc(Nc3cc(Cl)n(C)n3)ncc2Cl)C1 (centres unmarked) [Compound I-97, N-(3-((5-chloro-2-((5-chloro-1-methyl-1H-pyrazol-3-yl)amino)pyrimidin-4-yl)amino)cyclohexyl)acrylamide] | > 100
C=CC(=O)NC1CCCC(Nc2nc(Nc3cc(COC)n(C)n3)ncc2Cl)C1 (centres unmarked) [Compound I-98, N-(3-((5-chloro-2-((5-(methoxymethyl)-1-methyl-1H-pyrazol-3-yl)amino)pyrimidin-4-yl)amino)cyclohexyl)acrylamide] | > 100
C=CC(=O)NC1CCCC(Nc2nc(Nc3cnn(CCN(C)C)c3)ncc2Cl)C1 (centres unmarked) [Compound I-99, N-(3-((5-chloro-2-((1-(2-(dimethylamino)ethyl)-1H-pyrazol-4-yl)amino)pyrimidin-4-yl)amino)cyclohexyl)acrylamide] | > 100
C=CC(=O)NC1CCCC(Nc2nc(Nc3cnn(C)c3)ncc2C)C1 (centres unmarked) [Compound I-100, N-(3-((5-methyl-2-((1-methyl-1H-pyrazol-4-yl)amino)pyrimidin-4-yl)amino)cyclohexyl)acrylamide] | > 100
CN(C)C/C=C/C(=O)NC1CCCC(Nc2nc(Nc3cnn(C)c3)ncc2Cl)C1 (centres unmarked) [Compound I-101, (E)-N-(3-((5-chloro-2-((1-methyl-1H-pyrazol-4-yl)amino)pyrimidin-4-yl)amino)cyclohexyl)-4-(dimethylamino)but-2-enamide] | > 100
